According to article PMC8778187, “A New Oxygen Containing Pyclen-Type Ligand as a Manganese(II) Binder for MRI and ^52Mn PET Applications: Equilibrium, Kinetic, Relaxometric, Structural and Radiochemical Studies” (Molecules, 2022):

Test: 17O NMR and NMRD measurements (water exchange, rotation, hydration number)
Type: physicochemical
Description: The relaxivity of paramagnetic metal complexes is governed by several parameters, including the water exchange rate (kex), the rotational correlation time (τR), and the number of inner sphere water molecules (q). In order to obtain information for these parameters, temperature dependent ^17O NMR measurements (9.4 T) and nuclear magnetic relaxation dispersion (NMRD) experiments were carried out in the frequency range of 0.01–80 MHz, at 3 different temperatures (25, 37, and 50 °C). Since numerous physico-chemical parameters determine the relaxivity, the independent assessment of some of the parameters is essential for the correct characterization. The variable temperature ^17O NMR measurements can deliver information about kex and τR via the transverse (1/T2) and the longitudinal (1/T1) ^17O relaxation rates, respectively, while the ^17O chemical shifts (Δω) depend on q. Therefore, the transverse and longitudinal relaxation rates and chemical shifts for a [Mn(3,9-OPC2A)] complex and a diamagnetic reference sample (HClO4, pH = 3.3) have been determined in the aqueous solution.
The ^17O 1/T2r values and the NMRD data have been analyzed simultaneously by the Swift–Connick equations [31], as well as by the Solomon–Bloembergen–Morgan (SMB) and Freed models (see Supporting Information). In this calculation, the water exchange rate, kex^298; its activation enthalpy and entropy, ΔH^‡ and ΔS^‡; the rotational correlational time, τR; its activation energy, ER; the square of the zero-field splitting energy (ZFS), Δ^2; and the correlation time of its modulation, τv, have been determined and listed in Table 5, together with corresponding values of other complexes for comparison. As a result of the high number of parameters involved in the calculations, some have to be set to reasonable estimates based on literature data. Thus, the scalar coupling constant, A/ħO, is set to 33 × 10^6 rad s^−1, the distance between the metal ion, and the inner and outer sphere water protons are fixed to rMnH = 2.83 Å and aMnH = 3.6 Å, respectively; the diffusion coefficient and its activation energy are fixed to DMnH = 23 × 10^−10 m^2s^−1 and EMnH = 18 kJmol^−1, and the activation energy of the modulation of the zero-field-splitting, Ev to 1.0 kJmol^−1.
The hydration number has been fixed to q = 1, based on the relaxivity value measured at 20 MHz (r1 = 3.09 mM^−1s^−1), and on the value, 0.97 ± 0.2, determined for q using the method proposed by Gale et al..
A Bruker Avance 400 (9.4 T) spectrometer was used to measure the longitudinal (1/T1) and transverse (1/T2) relaxation rates, and the chemical shifts of an aqueous solution of the [Mn(3,9-OPC2A)] complex (pH = 7.4, 1.3 mM) and a diamagnetic reference (HClO4 acidified water, pH = 3.3) in the temperature range of 273–348 K. The temperature calibration was performed using literature protocols relying on ethylene glycol and methanol standards. The 1/T1 and 1/T2 values were determined by the inversion−recovery and the Carr−Purcell−Meiboom−Gill spin echo technique, respectively. To avoid susceptibility corrections of the chemical shifts, a glass sphere fitted into a 10 mm NMR tube was used to contain the samples. ^17O enriched water (10% H2^17O, CortecNet) was added to the solutions to improve sensitivity (circa 1% enrichment). Proton NMRD profiles of the [Mn(3,9-OPC2A)] complex (1.00 mM, pH = 7.4) were recorded in aqueous solution on a Stelar SMARTracer Fast Field Cycling relaxometer (0.01−10 MHz), and a Bruker WP80 NMR electromagnet adapted to variable field measurements (20−80 MHz) and controlled by a SMARTracer PC-NMR console (Stelar s.r.l., Mede, Italy). The temperature was monitored by a VTC91 temperature control unit and maintained by a gas flow. The temperature was determined by previous calibration with a Pt resistance temperature probe. […]

## O=C([O-])CN1CCOCCN(CC(=O)[O-])Cc2cccc(n2)C1.[Mn+2] [[Mn(3,9-OPC2A)]]
20 MHz, 298 K
  r1^298_20 MHz: 3.09 mM⁻¹ s⁻¹
Activation energy of rotation
  ER: 14.8 ± 0.6 kJmol^−1
Activation enthalpy of water exchange
  ΔH^‡: 28.5 ± 1.7 kJmol^−1
Activation entropy of water exchange
  ΔS^‡: −1.9 ± 0.8 JK^−1mol^−1
Correlation time of ZFS modulation
  τv^298: 19.3 ± 3.0 ps
Hydration number from 17O NMR line widths
  q (method proposed by Gale et al.): 0.97 ± 0.2
Hydration number, fixed during the fitting procedure
  q: 1
Rotational correlation time
  τR^298: 40.0 ± 1.1 ps
Square of the zero-field splitting energy
  Δ^2: 17.8 ± 3.6 10^18s^−2
Water exchange rate with bulk solvent
  kex^298: 5.3 ± 0.4 × 10^7 s^−1
Water exchange rate, fit of 17O NMR and NMRD data
  kex^298: 5.3 ± 0.4 10^7s^−1
